Assay results reported in ChEMBL document CHEMBL1201862, “PubChem BioAssay data set” (2004).
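Tested at 5 concentrations; 48 h exposure; 96-well plates; endpoints linearly interpolated, else capped at highest concentration. GI50 is the concentration that inhibits growth by half.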 Activity calls are given as the source filed them. No stated cut-off is given here; in the data, active = GI50 up to about 1.1 µM and inactive = higher.

How the values were obtained:
Test in all cases: NCI anticancer screen, dose series, 48 h
[1] = tested on: 786-0
[2] = tested on: A498
[3] = tested on: A549
[4] = tested on: ACHN
[5] = tested on: CAKI-1
[6] = tested on: CCRF-CEM
[7] = tested on: COLO 205
[8] = tested on: DLD-1
[9] = tested on: DMS-114
[10] = tested on: EKVX
[11] = tested on: HCC 2998
[12] = tested on: HCT-116
[13] = tested on: HCT-15
[14] = tested on: HL-60
[15] = tested on: HOP-18
[16] = tested on: HOP-62
[17] = tested on: HOP-92
[18] = tested on: HT-29
[19] = tested on: IGROV-1
[20] = tested on: K562
[21] = tested on: KM-20L2
[22] = tested on: KM12
[23] = tested on: LOX IMVI
[24] = tested on: LXFL 529
[25] = tested on: M14
[26] = tested on: M19-MEL
[27] = tested on: MOLT-4
[28] = tested on: Malme-3M
[29] = tested on: NCI-H226
[30] = tested on: NCI-H23
[31] = tested on: NCI-H460
[32] = tested on: NCI-H522
[33] = tested on: OVCAR-3
[34] = tested on: OVCAR-4
[35] = tested on: OVCAR-5
[36] = tested on: OVCAR-8
[37] = tested on: RPMI-8226
[38] = tested on: RXF 393
[39] = tested on: RXF 631
[40] = tested on: SF-268
[41] = tested on: SF-295
[42] = tested on: SF-539
[43] = tested on: SK-MEL-28
[44] = tested on: SK-MEL-5
[45] = tested on: SK-OV-3
[46] = tested on: SN12C
[47] = tested on: SNB-19
[48] = tested on: SNB-75
[49] = tested on: SNB-78
[50] = tested on: SR
[51] = tested on: SW-620
[52] = tested on: TK-10
[53] = tested on: U-251
[54] = tested on: UACC-257
[55] = tested on: UACC-62
[56] = tested on: UO-31
[57] = tested on: SK-MEL-2
[58] = tested on: XF498
[59] = tested on: DMS-273

For `O=S1(=O)COc2ccccc2-c2ncncc21`, the GI50 [1] was > 100 µM (inactive), the GI50 [2] was > 100 µM (inactive) and the GI50 [3] was > 100 µM (inactive). For the same compound, the GI50 [4] was > 100 µM (inactive), the GI50 [5] was > 100 µM (inactive) and the GI50 [6] was > 100 µM (inactive). The GI50 [7] was > 100 µM (inactive), the GI50 [8] was > 100 µM (inactive) and the GI50 [9] was > 100 µM (inactive). The GI50 [10] was > 100 µM (inactive), the GI50 [11] was > 100 µM (inactive) and the GI50 [12] was > 100 µM (inactive). For the same compound, the GI50 [13] was > 100 µM, the GI50 [14] was > 100 µM (inactive) and the GI50 [15] was > 100 µM (inactive). For the same compound, the GI50 [16] was > 100 µM (inactive), the GI50 [17] was > 100 µM (inactive) and the GI50 [18] was > 100 µM (inactive). The GI50 [19] was > 100 µM (inactive), the GI50 [20] was > 100 µM (inactive) and the GI50 [21] was > 100 µM (inactive). The GI50 [22] was > 100 µM (inactive), the GI50 [23] was > 100 µM (inactive) and the GI50 [24] was > 100 µM (inactive). For the same compound, the GI50 [25] was > 100 µM (inactive), the GI50 [26] was > 100 µM (inactive) and the GI50 [27] was > 100 µM (inactive). For the same compound, the GI50 [28] was > 100 µM (inactive), the GI50 [29] was > 100 µM (inactive) and the GI50 [30] was > 100 µM (inactive). The GI50 [31] was > 100 µM (inactive), the GI50 [32] was > 100 µM (inactive) and the GI50 [33] was > 100 µM (inactive). The GI50 [34] was > 100 µM (inactive), the GI50 [35] was > 100 µM (inactive) and the GI50 [36] was > 100 µM (inactive). For the same compound, the GI50 [37] was > 100 µM (inactive), the GI50 [38] was 1.02 µM (active) and the GI50 [39] was > 100 µM (inactive). For the same compound, the GI50 [40] was > 100 µM (inactive), the GI50 [41] was > 100 µM (inactive) and the GI50 [42] was > 100 µM (inactive). For the same compound, the GI50 [43] was > 100 µM (inactive), the GI50 [44] was > 100 µM (inactive) and the GI50 [45] was > 100 µM (inactive). The GI50 [46] was > 100 µM (inactive), the GI50 [47] was > 100 µM (inactive) and the GI50 [48] was > 100 µM (inactive). For the same compound, the GI50 [49] was > 100 µM (inactive), the GI50 [50] was > 100 µM (inactive) and the GI50 [51] was > 100 µM (inactive). The GI50 [52] was > 100 µM (inactive), the GI50 [53] was > 100 µM (inactive) and the GI50 [54] was > 100 µM (inactive). The GI50 [55] was > 100 µM (inactive) and the GI50 [56] was > 100 µM (inactive).
For `CC1=C(c2ccccc2)CON(c2ccccc2)C1`, the GI50 [1] was 36.8 µM (inactive), the GI50 [3] was 54.5 µM (inactive) and the GI50 [4] was 30.2 µM (inactive). The GI50 [5] was 39.6 µM (inactive), the GI50 [6] was 25.1 µM (inactive) and the GI50 [7] was 33.1 µM (inactive). The GI50 [9] was 31 µM (inactive), the GI50 [10] was 46.6 µM (inactive) and the GI50 [11] was 67.5 µM (inactive). For the same compound, the GI50 [12] was 24.7 µM (inactive), the GI50 [13] was 28.4 µM and the GI50 [14] was 26.6 µM (inactive). For the same compound, the GI50 [16] was 66.2 µM (inactive), the GI50 [18] was 36.9 µM (inactive) and the GI50 [19] was 43.3 µM (inactive). The GI50 [20] was 30.1 µM (inactive), the GI50 [21] was 31.4 µM (inactive) and the GI50 [22] was 22.7 µM (inactive). For the same compound, the GI50 [23] was 30.8 µM (inactive), the GI50 [24] was 29.1 µM (inactive) and the GI50 [25] was 33.4 µM (inactive). The GI50 [26] was 38.7 µM (inactive), the GI50 [27] was 29.6 µM (inactive) and the GI50 [28] was 56.4 µM (inactive). For the same compound, the GI50 [29] was 85.7 µM (inactive), the GI50 [30] was 51.5 µM (inactive) and the GI50 [31] was 35 µM (inactive). For the same compound, the GI50 [32] was 15.2 µM (inactive), the GI50 [33] was 85.7 µM (inactive) and the GI50 [34] was > 100 µM (inactive). For the same compound, the GI50 [35] was 32.9 µM (inactive), the GI50 [36] was 33.5 µM (inactive) and the GI50 [37] was 28.4 µM (inactive). For the same compound, the GI50 [38] was 16.9 µM (inactive), the GI50 [39] was 24.8 µM (inactive) and the GI50 [40] was 39.9 µM (inactive). For the same compound, the GI50 [41] was 30.6 µM (inactive), the GI50 [42] was 40.6 µM (inactive) and the GI50 [43] was 31 µM (inactive). The GI50 [57] was 26.6 µM (inactive), the GI50 [44] was 20.5 µM (inactive) and the GI50 [45] was > 100 µM (inactive). The GI50 [46] was 53.6 µM (inactive), the GI50 [47] was 39.4 µM (inactive) and the GI50 [49] was 39.9 µM (inactive). The GI50 [50] was 31.3 µM (inactive), the GI50 [51] was 39.4 µM (inactive) and the GI50 [53] was 25.8 µM (inactive). The GI50 [54] was 40.8 µM (inactive), the GI50 [55] was 38.5 µM (inactive) and the GI50 [56] was 29.7 µM (inactive). The GI50 [58] was 40.6 µM (inactive).
With `NCCCNC(=O)c1csc(NC(=O)c2csc(NC(=O)CCCN)n2)n1` the GI50 [1] was > 100 µM (inactive), the GI50 [2] was > 100 µM (inactive) and the GI50 [3] was > 100 µM (inactive). For the same compound, the GI50 [4] was > 100 µM (inactive), the GI50 [5] was > 100 µM (inactive) and the GI50 [6] was > 100 µM (inactive). For the same compound, the GI50 [7] was > 100 µM (inactive), the GI50 [8] was > 100 µM (inactive) and the GI50 [9] was > 100 µM (inactive). The GI50 [59] was > 100 µM (inactive), the GI50 [10] was > 100 µM (inactive) and the GI50 [11] was > 100 µM (inactive). For the same compound, the GI50 [12] was > 100 µM (inactive), the GI50 [13] was > 100 µM and the GI50 [14] was > 100 µM (inactive). For the same compound, the GI50 [15] was > 100 µM (inactive), the GI50 [16] was > 100 µM (inactive) and the GI50 [17] was > 100 µM (inactive). The GI50 [18] was > 100 µM (inactive), the GI50 [19] was > 100 µM (inactive) and the GI50 [20] was > 100 µM (inactive). For the same compound, the GI50 [21] was > 100 µM (inactive), the GI50 [22] was > 100 µM (inactive) and the GI50 [24] was > 100 µM (inactive). The GI50 [25] was > 100 µM (inactive), the GI50 [26] was > 100 µM (inactive) and the GI50 [27] was > 100 µM (inactive). For the same compound, the GI50 [28] was > 100 µM (inactive), the GI50 [29] was > 100 µM (inactive) and the GI50 [30] was > 100 µM (inactive). For the same compound, the GI50 [31] was > 100 µM (inactive), the GI50 [32] was > 100 µM (inactive) and the GI50 [33] was > 100 µM (inactive). The GI50 [34] was 18.7 µM (inactive), the GI50 [35] was > 100 µM (inactive) and the GI50 [36] was > 100 µM (inactive). The GI50 [37] was > 100 µM (inactive), the GI50 [39] was > 100 µM (inactive) and the GI50 [40] was > 100 µM (inactive). For the same compound, the GI50 [41] was > 100 µM (inactive), the GI50 [42] was > 100 µM (inactive) and the GI50 [43] was > 100 µM (inactive). The GI50 [57] was > 100 µM (inactive), the GI50 [44] was > 100 µM (inactive) and the GI50 [45] was > 100 µM (inactive). For the same compound, the GI50 [46] was > 100 µM (inactive), the GI50 [48] was > 100 µM (inactive) and the GI50 [49] was > 100 µM (inactive). The GI50 [50] was > 100 µM (inactive), the GI50 [52] was > 100 µM (inactive) and the GI50 [53] was > 100 µM (inactive). For the same compound, the GI50 [54] was > 100 µM (inactive), the GI50 [55] was > 100 µM (inactive) and the GI50 [56] was > 100 µM (inactive).
